In publication PMC4358773, “Highly specific ubiquitin-competing molecules effectively promote frataxin accumulation and partially rescue the aconitase defect in Friedreich ataxia cells” (Neurobiology of Disease, 2015):

Molecular target: T1, frataxin precursor (aa 1-210) (Homo sapiens, UniProt Q16595)
T1 construct: gene FXN; full-length precursor, aa 1-210, recombinant, expressed and purified by GenScript
T1 sequence (Q16595 1-210): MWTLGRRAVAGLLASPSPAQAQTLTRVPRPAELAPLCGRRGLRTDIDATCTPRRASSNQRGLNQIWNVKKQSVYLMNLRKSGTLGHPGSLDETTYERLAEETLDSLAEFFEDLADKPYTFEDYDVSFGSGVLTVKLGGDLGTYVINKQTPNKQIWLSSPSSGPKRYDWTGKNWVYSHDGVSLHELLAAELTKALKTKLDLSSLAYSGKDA
Assay: intrinsic Trp fluorescence quenching, hyperbolic isotherm
Conditions: 20 °C; 2 μM protein; ligand 0.5-25 μM; half-saturation binding constant; read-out: L1/2

SMILES | Kd
C/C(=N\NC(=O)c1ccc(C)cc1C)c1ccc2c(c1)Nc1ccccc1S2 [UCM53] | 2900 ± 300 nM
C/C(=N\NC(=O)c1ccccc1)c1ccc2c(c1)Nc1ccccc1S2 [UCM108] | 2300 ± 300 nM
